Measured values published in paper PMC10515640, “Structure-Based Optimization of Covalent, Small-Molecule Stabilizers of the 14-3-3σ/ERα Protein–Protein Interaction from Nonselective Fragments” (Journal of the American Chemical Society, 2023).
Like-named read-outs stand apart in the source and are kept apart here.

Assays:
[1] = biological target: T1, 14-3-3σ/ERα (Homo sapiens, UniProt P03372+P31947); assay: Fluorescence anisotropy compound titration, FAM-labeled ERα peptide; details: labeling in MS assay, peptide binding in FA assay
T1 construct: The 14-3-3 σ isoform (full-length for mass spectrometry and fluorescence anisotropy assays, ΔC for crystallography); made in house; host or cells: E. coli Rosetta 2(DE3)pLysS, pPROEX HTb vector

[2] = biological target: T2, 14-3-3σ (Homo sapiens, UniProt P31947); assay: Mass spectrometry dose response, compound binding to 14-3-3σ in the absence of peptide (apo); details: 100 nM compound, 100 nM 14-3-3σ
T2 construct: The 14-3-3 σ isoform (full-length for mass spectrometry and fluorescence anisotropy assays, ΔC for crystallography); made in house; host or cells: E. coli Rosetta 2(DE3)pLysS, pPROEX HTb vector
T2 sequence (P31947 1-248): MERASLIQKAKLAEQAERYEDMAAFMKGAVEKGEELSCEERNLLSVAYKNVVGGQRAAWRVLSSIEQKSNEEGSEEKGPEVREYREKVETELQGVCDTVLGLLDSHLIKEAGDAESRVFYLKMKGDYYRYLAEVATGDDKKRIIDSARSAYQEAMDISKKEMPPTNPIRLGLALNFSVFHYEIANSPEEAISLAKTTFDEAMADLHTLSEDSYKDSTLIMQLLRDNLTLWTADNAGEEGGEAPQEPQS
In short: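 This apo mass spectrometry assay tracked adduct formation between compounds and the native cysteine of 14-3-3σ in the absence of any peptide. Wells held 100 nM protein in 10 mM TRIS pH 8.0 with a 3-fold compound dilution series, final volume 50 μl. Injections of 6 μl were taken at 1h, 8h, 16h and 24h, and dose responses were fitted with a four-parameter variable-slope model in GraphPad Prism.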

[3] = biological target: T1, 14-3-3σ/ERα; assay: Mass spectrometry dose response, compound binding to 14-3-3σ in the presence of ERα phosphopeptide; details: 100 nM compound, 100 nM 14-3-3σ, ERα-peptide 2 µM
In short: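 Covalent labeling of Cys38 on 14-3-3σ was tracked by LC-MS on a Waters Acquity UPLC/Xevo G2-XS Q-Tof, with samples desalted on a Protein BEH-C4 column. Full-length wild type 14-3-3σ (100 nM) plus ERα phosphopeptide was mixed with compound in 10 mM TRIS, pH 8.0, at 50 μl per well. Percent bound was measured at several time points.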

[4] = biological target: T3, 14-3-3σ/C-RAF (Homo sapiens, UniProt P31947); assay: Mass spectrometry dose response, compound binding to 14-3-3σ in the presence of C-RAF phosphopeptide; details: 100 nM compound, 100 nM 14-3-3σ, C-RAF peptide 18 µM
T3 construct: The 14-3-3 σ isoform (full-length for mass spectrometry and fluorescence anisotropy assays, ΔC for crystallography); made in house; host or cells: E. coli Rosetta 2(DE3)pLysS, pPROEX HTb vector
T3 sequence (P31947 1-248): T2 sequence (P31947 1-248)
In short: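 Compound stocks of 50 mM in DMSO were serially diluted 3-fold to give 19-point dose responses topping out at 1 mM, then 1000 nl was transferred into 50 μl wells holding 100 nM full-length wild type 14-3-3σ plus C-RAF phosphopeptide. Mass spectrometry measured percent compound bound to Cys38, with curves fitted in GraphPad Prism using a four-parameter variable-slope model.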

[5] = biological target: T1, 14-3-3σ/ERα; assay: Fluorescence anisotropy compound titration, FAM-labeled ERα peptide; assay type: binding; details: for EC50: 10 nM ERα-FAM labeled peptide, 1 µM 14-3-3σ, overnight incubation (24 h)
In short: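 Compounds, serially diluted 2-fold from a top concentration of 500 or 1000 µM, were added to 10 nM FAM-labeled ERα peptide plus 1 µM 14-3-3σ in 10 mM HEPES pH 7.5, 150 mM NaCl, 0.1% Tween20, 1 mg/mL BSA (1% DMSO). Anisotropy was measured after overnight room-temperature incubation, and EC50 values were derived by four-parameter logistic fitting averaged over three independent experiments.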

[6] = biological target: T3, 14-3-3σ/C-RAF; assay: Fluorescence anisotropy compound titration, FAM-labeled C-RAF peptide; assay type: binding; details: for stabilization of 14-3-3σ/C-RAF (in words): MS and FA assays, abstract: up to 150 μM compound
[7] = biological target: T1, 14-3-3σ/ERα; assay: Fluorescence anisotropy protein titration, FAM-labeled ERα peptide; assay type: binding; details: 10 nM FAM-ERα peptide
Description: To evaluate compound-mediated stabilization of the 14-3-3σ/ERα complex directly, FA protein titrations were performed at a saturating concentration of compound. FA protein titrations allowed the quantification of the cooperative effect by comparing the apparent dissociation constants (appKD) of the binary and ternary complexes. 14-3-3σ was titrated into 10 nM FAM-labeled ERα peptide in the presence of DMSO or 100 μM of the compounds (Table S4). […]
diluted in buffer (10 mM HEPES, pH 7.5, 150 mM NaCl, 0.1% Tween20, 1 mg/mL Bovine Serum Albumin (BSA; Sigma-Aldrich). Final DMSO in the assay was always 1%. […]
Protein titrations were made by titrating 14-3-3σ in a 2-fold dilution series (starting at 300 µM) to a mix of fluorescein-labeled peptide (10 nM) and DMSO or compound (100 µM). Fluorescence anisotropy measurements were performed after overnight incubation at room temperature. […]
Wells containing only FAM-peptide were used to set as G-factor at 35 mP. Data reported are at endpoint. EC50 and apparent Kd values were obtained from fitting the data with a four-parameter logistic model (4PL) in GraphPad Prism 7 for Windows. Data was obtained and averaged based on either three (compound titrations) or two (protein titrations) independent experiments.

[8] = biological target: T3, 14-3-3σ/C-RAF; assay: Fluorescence anisotropy compound titration, FAM-labeled C-RAF peptide; assay type: binding; details: 10 nM C-RAF-FAM labeled peptide, 5 µM 14-3-3σ, overnight incubation; read-out: EC50 value C-RAF (FA compound titration)
In short: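 Peptide-binding stabilization was followed by fluorescence anisotropy. A mix of 5 µM 14-3-3σ and 10 nM FAM-labeled C-RAF peptide received 2-fold serial dilutions of compound starting at 500 or 1000 µM. The buffer was 10 mM HEPES pH 7.5, 150 mM NaCl, 0.1% Tween20 and 1 mg/mL BSA. Anisotropy was read after incubating overnight at room temperature. A four-parameter logistic fit in GraphPad Prism 7 gave EC50 values averaged from three experiments.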

[9] = read-out: EC50 value ERα (FA compound titration)
[10] = EC50 value ERα (FA compound titration)

EC50 [5, 9] | stabilization of 14-3-3σ/C-RAF (in words) [6] | EC50 [8] | SMILES | activity in MS and FA assays (in words) [1] | Percentage (%) bound of compound to 14-3-3σ, APO 1h [2] | Percentage (%) bound of compound to 14-3-3σ, APO 8h [2] | Percentage (%) bound of compound to 14-3-3σ, APO 16h [2] | Percentage (%) bound of compound to 14-3-3σ, APO 24h [2] | Percentage (%) bound of compound to 14-3-3σ, ERα 1h [3] | Percentage (%) bound of compound to 14-3-3σ, ERα 8h [3] | Percentage (%) bound of compound to 14-3-3σ, ERα 16h [3] | Percentage (%) bound of compound to 14-3-3σ, ERα 24h [3] | Percentage (%) bound of compound to 14-3-3σ, CRAF 1h [4] | Percentage (%) bound of compound to 14-3-3σ, CRAF 8h [4] | Percentage (%) bound of compound to 14-3-3σ, CRAF 24h ([4]; 24h) | Percentage (%) bound of compound to 14-3-3σ, CRAF 24h ([4]; head prints 24h) | EC50 [5, 10] | further results
 |  |  | O=C(CCl)NCC1CCN(C(=O)C2(Nc3ccc(Cl)cc3)CCCC2)CC1 [compound 118] |  | 0% | 0% | 0.8% | 13.0% | 11.2% | 24.1% | 60.1% | 96.6% | 2.9% | 3.4% | 23.7% | 11.5% | 5 ± 0.4 µM | EC50 ([6]; EC50 value C-RAF (FA compound titration), 10 nM C-RAF-FAM labeled peptide, 5 µM 14-3-3σ, overnight incubation): > 150 µM; selectivity for ERα (over C-RAF, FA EC50) ([5]; FA compound titrations): greater than 30 fold
2 ± 0.3 µM | no stabilization | > 150 µM | O=C(CCl)NCC1CCN(C(=O)C2(Nc3ccc(Cl)cc3)CCNCC2)CC1 [compound 131] |  | 1.4% | 2.2% | 5.8% | 14.1% | 54.4% | 82.2% | 94.0% | 98.3% | 2.0% | 2.4% | 12.5% | 4.6% |  | X Fold stabilization (100 µM compound) of 14-3-3σ/ERα ([7]; versus DMSO reference): 30 fold; Kd ([7]; 100 µM compound, overnight incubation): 0.049 µM
8 ± 1 µM | no stabilization | > 150 µM | NC1CCC(Nc2ccc(Cl)cc2)(C(=O)N2CCC(CNC(=O)CCl)CC2)CC1 (stereo not drawn) [compound 137] |  | 1.4% | 1.9% | 3.2% | 9.3% | 36.3% | 60.4% | 90.0% | 96.4% | 1.7% | 3.6% | 10.4% | 6.6% |  | 
 |  |  | C=CS(=O)(=O)NCC1CCN(C(=O)C2(Nc3ccc(Cl)cc3)CCOCC2)CC1 [compound 155] | inactive | 0% | 0.7% | 4.6% | 31.4% | 0.6% | 1.5% | 5.9% | 14.1% | 0% | 0% | 1.0% | 0% | > 150 µM | 

SMILES | EC50 [5, 9] | stabilization of 14-3-3σ/C-RAF (in words) [6] | EC50 [8] | activity in MS and FA assays (in words) [1] | Percentage (%) bound of compound to 14-3-3σ, APO 1h [2] | Percentage (%) bound of compound to 14-3-3σ, APO 8h [2] | Percentage (%) bound of compound to 14-3-3σ, APO 16h [2] | Percentage (%) bound of compound to 14-3-3σ, APO 24h [2] | Percentage (%) bound of compound to 14-3-3σ, ERα 1h [3] | Percentage (%) bound of compound to 14-3-3σ, ERα 8h [3] | Percentage (%) bound of compound to 14-3-3σ, ERα 16h [3] | Percentage (%) bound of compound to 14-3-3σ, ERα 24h [3] | Percentage (%) bound of compound to 14-3-3σ, CRAF 1h [4] | Percentage (%) bound of compound to 14-3-3σ, CRAF 8h [4] | Percentage (%) bound of compound to 14-3-3σ, CRAF 24h ([4]; 24h) | Percentage (%) bound of compound to 14-3-3σ, CRAF 24h ([4]; head prints 24h) | EC50 [5, 10] | further results
CC(C)(Nc1ccccc1)C(=O)N1CCC(CNC(=O)CCl)CC1 [compound 85] | > 150 µM |  |  | inactive | 0% | 0% | 0% | 0% | 0.9% | 1.2% | 1.5% | 1.5% | 0.9% | 1.2% | 1.5% | 1.5% |  | 
